Results on one molecule are retold here after patent US20080031944A1, “Stabilization of lorazepam” (CIMA LABS INC., priority 2006, published 2008).

This data set can be described thus: Stability of lorazepam with ODT excipients and coatings.

SMILES strings stand for the structures.

Turning to `O=C1Nc2ccc(Cl)cc2C(c2ccccc2Cl)=NC1O` (centres unmarked) [lorazepam, 7-chloro-5-(2-chlorophenyl)-1,3-dihydro-3-hydroxy-2H-1,4-benzodiazepin-2-one], the stability when coated entry (lorazepam coated with EUDRAGIT® E-100) was “unstable”. For the same molecule, under “with mannitol and super disintegrants such as crosslinked PVP”, the “stability with ODT excipients” value is listed as “unstable”.
